From ChEMBL document CHEMBL5316301, “Dual Nicotinamide Phosphoribosyltransferase (NAMPT) and Indoleamine 2,3-Dioxygenase 1 (IDO1) Inhibitors for the Treatment of Drug-Resistant Nonsmall-Cell Lung Cancer” (J Med Chem, 2023)
Active and inactive are the calls of the source. The rule behind the calls is not given here.

Legend:
[1] = system: A549; assay: Induction of ROS production in NAMPT inhibitor-resistant A549 cells assessed as ROS accumulation incubated for 24 hrs by DCFH-DA staining based flow cytometry analysis; format: functional, cell-based; settings: Homo sapiens, dose 5-15 µM
[2] = system: A549; assay: Antimigratory activity against NAMPT inhibitor-resistant A549 cells assessed as reduction in cell migration at 5 uM incubated for 24 hrs in presence of taxol by inverted microscopic analysis; format: functional, cell-based; settings: Homo sapiens
[3] = organism: Danio rerio; assay: Induction of ROS production in zebra fish embryos assessed as increase in green fluorescence at 10 uM measured for 24 hrs by DCFH-DA staining based inverted microscopic analysis; format: functional
[4] = system: A549; assay: Antitumor activity against NAMPT inhibitor-resistant A549 cells xenografted in athymic nude mouse assessed as tumor growth inhibition at 50 mg/kg, po bid measured on day 21 by caliper method; format: functional, Homo sapiens; settings: A549, 504 h, time 21 day, read-out: TGI
[5] = system: A549; assay: Antiproliferative activity against NAMPT inhibitor-resistant A549 cells assessed as reduction in cell viability in presence of NMN and L-tryptophan measured for 48 hrs by CCK-8 assay; format: functional, cell-based; settings: Homo sapiens
[6] = system: A549; assay: Antitumor activity against NAMPT inhibitor-resistant A549 cells xenografted in athymic nude mouse at 100 mg/kg, po measured for 14 days in presence of FK866; format: functional, organism-based; settings: Homo sapiens, time 14.0 day
[7] = system: A549; assay: Antitumor activity against NAMPT inhibitor-resistant A549 cells xenografted in athymic nude mouse at 100 to 200 mg/kg, po measured for 14 days in presence of FK866; format: functional, organism-based; settings: Homo sapiens, dose 100-200 mg/kg, time 14.0 day
[8] = system: A549; assay: Antitumor activity against NAMPT inhibitor-resistant A549 cells xenografted in athymic nude mouse assessed as tumor growth inhibition at 100 mg/kg, po bid measured on day 21 by caliper method; format: functional, Homo sapiens; settings: A549, 504 h, time 21 day, read-out: TGI
[9] = system: A549; assay: Antimigratory activity against NAMPT inhibitor-resistant A549 cells assessed as decrease in Snail expression incubated 24 hrs by Western blot analysis; format: functional, cell-based; settings: Homo sapiens, dose 5-15 µM
[10] = target: T1, Indoleamine 2,3-dioxygenase 1 (Homo sapiens, UniProt P14902); assay: Inhibition of human recombinant IDO1 assessed as reduction in N-formylkynurenine formation using L-tryptophan as substrate preincubated for 30 mins followed by substrate addition and measured after 10 mins by SpectraMax microplate reader analysis
T1 sequence (P14902 whole entry): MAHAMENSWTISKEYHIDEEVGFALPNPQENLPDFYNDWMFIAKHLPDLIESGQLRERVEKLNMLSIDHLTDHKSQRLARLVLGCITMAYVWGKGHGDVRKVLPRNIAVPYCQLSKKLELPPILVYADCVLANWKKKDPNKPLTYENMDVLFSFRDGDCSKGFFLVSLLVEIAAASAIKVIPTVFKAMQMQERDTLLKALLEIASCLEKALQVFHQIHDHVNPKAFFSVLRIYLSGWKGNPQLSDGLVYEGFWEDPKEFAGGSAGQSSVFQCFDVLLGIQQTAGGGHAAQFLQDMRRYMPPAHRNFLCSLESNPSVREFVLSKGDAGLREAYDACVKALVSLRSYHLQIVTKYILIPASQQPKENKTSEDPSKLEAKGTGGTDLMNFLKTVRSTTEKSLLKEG

[11] = system: A549; assay: Downregulation of NAMPT expression in NAMPT NAMPT inhibitor-resistant A549 cells measured for 24 hrs by Western blot analysis; format: functional, cell-based; settings: Homo sapiens, dose 5-10 µM
[12] = system: A549; assay: Downregulation of IDO1 expression in NAMPT inhibitor-resistant A549 cells measured for 12 hrs in presence of MG-132 by Western blot analysis; format: functional, cell-based; settings: Homo sapiens
[13] = Toxicity in athymic nude mouse xenografted with NAMPT inhibitor-resistant A549 cells assessed as mortality at 50 to 200 mg/kg, po measured on day 21; format: organism-based; settings: in vivo, 504 h, dose 50-200 mg/kg, time 21 day
[14] = system: A549; assay: Effect on intracellular lipid level in NAMPT inhibitor-resistant A549 cells measured for 24 hrs by oil red staining based microscopic analysis; format: functional, cell-based; settings: Homo sapiens
[15] = target: Nicotinamide phosphoribosyltransferase (Homo sapiens, UniProt P43490); assay: Inhibition of recombinant NAMPT (unknown origin) incubated for 60 mins by SpectraMax microplate reader analysis
Chain of Nicotinamide phosphoribosyltransferase (P43490 whole entry): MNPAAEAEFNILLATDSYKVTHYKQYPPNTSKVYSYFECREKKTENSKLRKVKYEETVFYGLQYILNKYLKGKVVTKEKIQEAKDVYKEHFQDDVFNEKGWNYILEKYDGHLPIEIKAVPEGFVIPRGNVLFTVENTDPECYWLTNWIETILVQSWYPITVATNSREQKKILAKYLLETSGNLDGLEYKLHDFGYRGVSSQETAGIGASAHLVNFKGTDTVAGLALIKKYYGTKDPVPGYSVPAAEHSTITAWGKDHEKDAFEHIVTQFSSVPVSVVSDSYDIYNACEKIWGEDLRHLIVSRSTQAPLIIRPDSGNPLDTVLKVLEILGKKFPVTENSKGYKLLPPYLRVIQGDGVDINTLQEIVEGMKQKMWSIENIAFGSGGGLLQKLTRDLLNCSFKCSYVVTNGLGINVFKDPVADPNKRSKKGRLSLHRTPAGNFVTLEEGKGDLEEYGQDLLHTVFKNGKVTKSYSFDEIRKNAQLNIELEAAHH

[16] = Toxicity in athymic nude mouse xenografted with NAMPT inhibitor-resistant A549 cells assessed as change in body weight at 50 to 200 mg/kg, po measured on day 21; format: organism-based; settings: in vivo, 504 h, dose 50-200 mg/kg, time 21 day
[17] = system: A549; assay: Antitumor activity against NAMPT inhibitor-resistant A549 cells xenografted in athymic nude mouse assessed as reduction in tumor size at 50 to 200 mg/kg, po bid measured on day 21 in presence of taxol by caliper method; format: functional, organism-based; settings: Homo sapiens, dose 50-200 mg/kg, time 21.0 day
[18] = system: A549; assay: Downregulation of NAD+ level in NAMPT inhibitor-resistant A549 cells at 10 uM measured for 24 hrs in presence of NMN/L-tryptophan/QA; format: functional, cell-based; settings: Homo sapiens
[19] = system: A549; assay: Antitumor activity against NAMPT inhibitor-resistant A549 cells xenografted in athymic nude mouse at 100 mg/kg, po measured for 14 days in presence of epacadostat; format: functional, organism-based; settings: Homo sapiens, time 14.0 day
[20] = system: A549; assay: Antiproliferative activity against NAMPT inhibitor-resistant A549 cells assessed as reduction in cell viability in presence of NMN/L-tryptophan/QA measured for 48 hrs by CCK-8 assay; format: functional, cell-based; settings: Homo sapiens
[21] = system: A549; assay: Antimigratory activity against NAMPT inhibitor-resistant A549 cells assessed as decrease in slug expression incubated 24 hrs by Western blot analysis; format: functional, cell-based; settings: Homo sapiens, dose 5-15 µM
[22] = system: A549; assay: Effect on intracellular lipid level in NAMPT inhibitor-resistant A549 cells measured for 24 hrs by nile red staining based microscopic analysis; format: functional, cell-based; settings: Homo sapiens
[23] = system: A549; assay: Inhibition of colony formation in NAMPT inhibitor-resistant A549 cells […] by crystal violet staining analysis; format: functional, cell-based; settings: Homo sapiens, dose 5-15 µM
[24] = Apparent volume of distribution in Sprague-Dawley rat at 5 mg/kg, iv; format: ADME, organism-based; settings: in vivo, read-out: Vz
[25] = system: A549; assay: Antimigratory activity against NAMPT inhibitor-resistant A549 cells assessed as inhibition of cell migration measured after 24 hrs by crystal violet staining based microscopic analysis; format: functional; settings: Homo sapiens, dose 5-15 µM
[26] = system: A549; assay: Induction of ROS production in NAMPT inhibitor-resistant A549 cells assessed as ROS accumulation at 5 to 15 uM incubated for 24 hrs in presence of NAC by DCFH-DA staining based flow cytometry analysis; format: functional, cell-based; settings: Homo sapiens, dose 5-15 µM
[27] = system: A549; assay: Downregulation of IDO1 expression in NAMPT inhibitor-resistant A549 cells measured for 12 hrs in presence of cycloheximide by Western blot analysis; format: functional, cell-based; settings: Homo sapiens
[28] = system: A549; assay: cells; settings: Homo sapiens, A549, 48 h
[29] = system: A549; assay: Antitumor activity against NAMPT inhibitor-resistant A549 cells xenografted in athymic nude mouse assessed as tumor growth inhibition at 200 mg/kg, po bid measured on day 21 by caliper method; format: functional, Homo sapiens; settings: A549, 504 h, time 21 day, read-out: TGI
[30] = target: T1, Indoleamine 2,3-dioxygenase 1; assay: Inhibition of human recombinant IDO1 in human HeLa cells assessed as reduction in N-formylkynurenine formation using L-tryptophan as substrate preincubated for 24 hrs followed by substrate addition and measured after 30 mins; format: cell-based
[31] = system: A549; assay: Antitumor activity against NAMPT inhibitor-resistant A549 cells xenografted in athymic nude mouse assessed as tumor growth inhibition at 100 mg/kg, po bid measured on day 21 in presence of taxol by caliper method; format: functional, Homo sapiens; settings: A549, 504 h, time 21 day, read-out: TGI
[32] = system: A549; assay: Downregulation of IDO1 expression in NAMPT inhibitor-resistant A549 cells measured for 24 hrs by Western blot analysis; format: functional, cell-based; settings: Homo sapiens, dose 5-10 µM
[33] = system: A549; assay: Antiproliferative activity against NAMPT inhibitor-resistant A549 cells assessed as reduction in cell viability in presence of NAC measured for 48 hrs by CCK-8 assay; format: functional, cell-based; settings: Homo sapiens
[34] = Oral bioavailability in Sprague-Dawley rat at 25 mg/kg; format: ADME, organism-based; settings: in vivo
[35] = system: A549; assay: Antitumor activity against NAMPT inhibitor-resistant A549 cells xenografted in athymic nude mouse at 100 to 200 mg/kg, po measured for 14 days in presence of epacadostat; format: functional, organism-based; settings: Homo sapiens, dose 100-200 mg/kg, time 14.0 day
[36] = system: A549; assay: Downregulation of NAD+ level in NAMPT inhibitor-resistant A549 cells at 10 uM measured for 24 hrs; format: functional, cell-based; settings: Homo sapiens
[37] = Clearance in Sprague-Dawley rat at 5 mg/kg, iv; format: ADME, organism-based; settings: in vivo
[38] = AUC in Sprague-Dawley rat at 25 mg/kg, po; format: ADME, organism-based; parameters: dose 25 mg/kg, route po; settings: in vivo
[39] = organism: Danio rerio; assay: Induction of ROS production in zebra fish embryos assessed as increase in green fluorescence at 5 uM measured for 24 hrs by DCFH-DA staining based inverted microscopic analysis; format: functional
[40] = system: A549; assay: Downregulation of Smad3 expression in NAMPT inhibitor-resistant A549 cells at 5 to 15 uM measured for 24 hrs; format: functional, cell-based; settings: Homo sapiens, dose 5-15 µM
[41] = system: A549; assay: Antiproliferative activity against NAMPT inhibitor-resistant A549 cells assessed as reduction in cell viability measured for 48 hrs by CCK-8 assay; settings: Homo sapiens
[42] = system: A549; assay: Antitumor activity against NAMPT inhibitor-resistant A549 cells xenografted in athymic nude mouse assessed as tumor growth inhibition at 2 mg/kg, iv bid measured on day 21 by caliper method; format: functional, Homo sapiens; settings: A549, 504 h, time 21 day, read-out: TGI

SMILES: O=C(NCCCCCCNc1nonc1/C(=N/O)Nc1ccc(F)c(Br)c1)c1ccc2nccn2c1
- Activity [1]: Dose-Dependent Effect
- Activity [2]: Active
- Activity [3]: Active
- inhibition in vivo at 50 mg/kg [4]: 24.6%
- Activity [5]: inactive
- Activity [6]: Active
- Activity [7]: Active
- inhibition in vivo at 100 mg/kg [8]: 40.2%
- Activity [9]: Dose-Dependent Effect
- IC50 [10]: 0.233 µM
- Activity [11]: Dose-Dependent Effect
- Activity [12]: inactive
- Activity [13]: Non-Toxic
- Activity [14]: Active
- IC50 [15]: 0.0577 µM
- Activity [16]: Non-Toxic
- Activity [17]: Active
- Activity [18]: Active
- Activity [19]: Active
- Activity [20]: inactive
- Activity [21]: Dose-Dependent Effect
- Activity [22]: Active
- inhibition [23]: Dose-Dependent Effect
- Vd [24]: 11.5 L/kg
- Activity [25]: Dose-Dependent Effect
- Activity [26]: inactive
- Activity [27]: Active
- IC50 [28]: 5.35 µM
- inhibition in vivo at 200 mg/kg [29]: 53.8%
- IC50 [30]: 0.16 µM
- inhibition in vivo at 100 mg/kg [31]: 64.3%
- Activity [32]: Dose-Dependent Effect
- Activity [33]: inactive
- bioavailability [34]: 52.5%
- Activity [35]: Active
- Activity [36]: Active
- clearance [37]: 106 mL/min/kg
- AUC [38]: 2530 ng·h/mL
- Activity [39]: Active
- Activity [40]: Active

SMILES: O=C(NCCNc1nonc1/C(=N/O)Nc1ccc(F)c(Br)c1)c1ccc2nccn2c1
- IC50 [10]: > 1 µM
- IC50 [30]: > 1 µM

SMILES: O=C(NCCCCCNc1nonc1/C(=N/O)Nc1ccc(F)c(Br)c1)c1ccc2nccn2c1
- IC50 [10]: 0.858 µM
- IC50 [30]: 0.67 µM

SMILES: O=C(NCCCCNc1nonc1/C(=N/O)Nc1ccc(F)c(Br)c1)c1ccc2nccn2c1
- IC50 [10]: 0.66 µM
- IC50 [30]: 0.52 µM

SMILES: O=C(CCNc1nonc1/C(=N/O)Nc1ccc(F)c(Br)c1)Nc1ccc(CNC(=O)c2ccc3nccn3c2)cc1
- IC50 [10]: 0.151 µM
- IC50 [30]: 0.161 µM

SMILES: O=C(NCc1ccc(C(=O)N2CCC(CNc3nonc3/C(=N/O)Nc3ccc(F)c(Br)c3)CC2)cc1)c1ccc2nccn2c1
- IC50 [10]: > 1 µM

SMILES: CC(=O)O[C@H]1C(=O)[C@@]2(C)[C@H]([C@H](OC(=O)c3ccccc3)[C@]3(O)C[C@H](OC(=O)[C@H](O)[C@@H](NC(=O)c4ccccc4)c4ccccc4)C(C)=C1C3(C)C)[C@]1(OC(C)=O)CO[C@@H]1C[C@@H]2O [PACLITAXEL]
- Activity [41]: Active
- inhibition in vivo at 2 mg/kg [42]: 20.2%

SMILES: O=C(NCCCCNc1nonc1/C(=N/O)Nc1ccc(F)c(Br)c1)c1ccc(CNC(=O)c2ccc3nccn3c2)cc1
- IC50 [10]: 0.835 µM
- IC50 [30]: 0.677 µM

SMILES: O=C(Nc1ccc(CCNc2nonc2/C(=N/O)Nc2ccc(F)c(Br)c2)cc1)c1ccc2nccn2c1
- IC50 [10]: > 1 µM
- IC50 [15]: > 10 µM
